# From US20080113974A1, “Heterocyclic Oxime Compounds, A Process For Their Preparation And Pharmaceutical Compositions Containing Them” (LES LABORATOIRES SERVIER, priority 2005, published 2008)
# System: ob/ob mouse
# Assay: Antidiabetic and hypolipaemic effect in the ob/ob mouse
# Type: in vivo
# Conditions: dose of 3 mg/kg; for variation in body weight: four days, body weight measured daily
# Procedure: The 10-week-old female ob/ob mouse (Harlan) is used for the in vivo tests. The animals are kept in a light-darkness cycle of 12 hours at 25° C. The mouse has a basal hyperglycaemia of 2 g/l. The animals are randomly selected with regard to their glycaemia to form groups of six. […] […] The control groups receive the solvents under the same conditions as the treated groups.
# The activity of the products is evaluated by measuring glycaemia, triglycerides and insulinaemia 24 hours after the final administration and by measuring body weight daily.
# [1] = twice per day for four days, 24 hours after the final administration
SMILES,variation in body weight,reduction in glycaemia [1],reduction in insulinaemia [1],reduction in triglycerides [1]
CCOC(Cc1ccc(OCCN2C(=O)COc3ccc(C(=NO)c4ccccc4)cc32)cc1)C(=O)O (centres unmarked) [Example 11],insignificant variation,25%,22%,45%
"CN(CCOc1ccc(CC2SC(=O)NC2=O)cc1)c1ccccn1 (centres unmarked) [rosiglitazone, reference compound]",significant increase,–,–,–
